Target: Endo-S2 (Streptococcus pyogenes serotype M49, UniProt T1WGN1)
Test: Screening of sugar substrates: transfer of oxazoline substrates to deglycosylated antibody by Endo-S2
Assay type: biochemical
Details: substrate 1.5 mM, (Fuc α1,6)GlcNAc-Herceptin 5 mg/mL, Endo-S2 0.2 mg/mL, 3 h; for recognition by / transfer activity of Endo-S2 (in words): 30° C., FIG. 1B
Description: Different sugar substrates (1 equivalent, including monosaccharide, disaccharide and trisaccharide structures) were weighed and dissolved in 50 mM PB, pH 7.0 buffer, CDMBI (5 equivalents) was added to the above system, mixed well and cooled to 0° C. Potassium phosphate (15 eq) was added, the final concentration of the sugar substrates in the reaction system was 10 mM, and the reaction was carried out at 0° C. for 2 h. Plenty of precipitate was observed, which was removed by centrifugation. The supernatant was oxazoline substrates G1, G12, G15-G20 containing salts, which were directly used for the next step of screening.
Oxazoline substrates (G1, G12, G15-G20), deglycosylated antibody (Fuc α1.6) GlcNAc-Herceptin and endoglycosidase Endo-S2 were sequentially added to 50 mM Tris-HCl, pH 7.2 buffer, such that the final concentrations of each were 1.5 mM, 5 mg/mL, and 0.2 mg/mL, respectively, which was incubated at 30° C. for 3 h for detection by mass spectrometry. At the same time, a control group without endoglycosidase was set to eliminate the influence of non-enzymatic reactions.

Sequence of Endo-S2 (T1WGN1 37-843): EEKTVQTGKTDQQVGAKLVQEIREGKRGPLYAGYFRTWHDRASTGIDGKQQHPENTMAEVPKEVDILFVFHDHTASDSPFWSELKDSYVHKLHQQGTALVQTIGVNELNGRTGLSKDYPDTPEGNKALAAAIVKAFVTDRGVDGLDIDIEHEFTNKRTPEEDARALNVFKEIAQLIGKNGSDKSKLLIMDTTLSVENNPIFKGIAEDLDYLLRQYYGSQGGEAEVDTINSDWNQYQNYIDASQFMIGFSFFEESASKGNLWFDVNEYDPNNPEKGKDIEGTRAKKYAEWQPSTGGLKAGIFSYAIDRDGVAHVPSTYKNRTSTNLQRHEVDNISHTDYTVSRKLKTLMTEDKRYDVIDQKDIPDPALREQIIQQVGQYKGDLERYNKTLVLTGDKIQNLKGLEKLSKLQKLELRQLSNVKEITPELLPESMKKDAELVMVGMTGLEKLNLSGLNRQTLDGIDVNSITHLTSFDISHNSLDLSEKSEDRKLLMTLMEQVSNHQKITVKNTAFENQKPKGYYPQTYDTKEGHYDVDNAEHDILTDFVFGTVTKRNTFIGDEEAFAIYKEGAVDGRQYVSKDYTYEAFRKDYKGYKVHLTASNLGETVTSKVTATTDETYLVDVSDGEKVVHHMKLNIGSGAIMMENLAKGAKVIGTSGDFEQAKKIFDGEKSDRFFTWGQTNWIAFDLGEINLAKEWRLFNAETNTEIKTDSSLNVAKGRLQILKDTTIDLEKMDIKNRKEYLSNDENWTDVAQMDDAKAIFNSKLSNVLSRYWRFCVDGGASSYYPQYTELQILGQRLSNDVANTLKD

Row | SMILES | transfer efficiency to the deglycosylated antibody (Tris-HCl pH 7.2, 30° C., mass spectrometry) [%] | recognition by / transfer activity of Endo-S2 (in words)
1 | CC1=NC2[C@@H](O1)OC(CO)[C@@H](O[C@@H]1OC(CO)[C@H](O)[C@H](O)C1O)[C@@H]2O (stereo partly drawn) [G1] | 68 | –
2 | CC(=O)N[C@H]1C([C@H](O)[C@H](O)CO)O[C@@](OCC2O[C@@H](O[C@@H]3C(CO)O[C@@H]4OC(C)=NC4[C@H]3O)C(O)[C@@H](O)[C@H]2O)(C(=O)O)C[C@H]1O (stereo partly drawn) [G12] | – | well recognized
3 | CC1=NC2C(O[C@@H]3OC(C)[C@@H](O)C(O)C3O)[C@H](O[C@@H]3OC(CO)[C@H](O)C(O)C3O)C(CO)O[C@@H]2O1 (stereo partly drawn) [G20] | – | greatly reduced
